The source of these data is ChEMBL document CHEMBL1201862, “PubChem BioAssay data set” (2004).

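Compound exposure: 48 hours, 5 concentrations, 96-well plates. Here, GI50 denotes the concentration required for 50% inhibition of growth.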 The source made the active and inactive calls. No stated cut-off is given here; in the data, active = GI50 up to about 1.1 µM and inactive = higher. Bounds are passed on as bounds.

Among the test systems are HT-29; TK-10; IGROV-1; CAKI-1; BT-549; UACC-257; UACC-62; M14; CCRF-CEM; NCI-H23; PC-3; SNB-75; MCF7; SK-MEL-2; KM12; OVCAR-8; NCI-H226; EKVX; 786-0.
Common to all, as to assay: NCI tumour cell line growth inhibition, 48 h

Regarding `CC(=O)N1c2ccccc2Sc2cc(C(O)(C(F)(F)F)C(F)(F)F)ccc21`, the GI50 in the test on HT-29, with TK-10, in the test on IGROV-1, with CAKI-1, in the test with BT-549 and with UACC-257 was > 10 µM (inactive) throughout. Besides, the GI50 is > 10 µM (inactive) with UACC-62; > 10 µM (inactive) in the test with M14; > 10 µM (inactive) with CCRF-CEM; > 10 µM (inactive) in the test with NCI-H23; > 10 µM (inactive) with PC-3; 9.59 µM (inactive) in the test on SNB-75. The GI50 in the test on MCF7, in the test with SK-MEL-2, in the test on KM12, in the test on OVCAR-8, in the test on NCI-H226 and in the test with EKVX was > 10 µM (inactive) in each case. Also, in the test on 786-0, the GI50 is > 10 µM (inactive).

Consider `O=[N+]([O-])/C=C/c1cc(Cl)c(/C=C/[N+](=O)[O-])cc1Cl`, for which the GI50 in the test with HT-29 was 2.5 µM (inactive); in the test on TK-10 it was 2.12 µM (inactive); in the test on IGROV-1 it was 3.29 µM (inactive); with CAKI-1, 1.89 µM (inactive); in the test with BT-549, 1.57 µM (inactive); in the test with UACC-257, 1.89 µM (inactive). Moreover, the GI50 in the test with UACC-62 is 1.91 µM (inactive); in the test on M14, 1.87 µM (inactive); in the test with CCRF-CEM it was 0.8 µM (active); in the test on NCI-H23 it was 2.61 µM (inactive); in the test with PC-3 it was 2.55 µM (inactive); with SNB-75, 13.8 µM (inactive). The GI50 was 2.89 µM (inactive) in the test with MCF7; 3.25 µM (inactive) with SK-MEL-2; 3.03 µM (inactive) in the test on KM12; 1.61 µM (inactive) with OVCAR-8; 2.06 µM (inactive) in the test with NCI-H226; 1.91 µM (inactive) with EKVX. In addition, the GI50 with 786-0 was 1.16 µM (inactive).

Take `C=CCN1CCC2(CC1)NC(=O)c1ccccc1O2`: the GI50 with HT-29, in the test on TK-10, in the test with IGROV-1, in the test with CAKI-1, in the test with BT-549 and with UACC-257 was > 100 µM (inactive) each time. For the same compound, the GI50 in the test on UACC-62, in the test on M14, in the test with CCRF-CEM, in the test with NCI-H23, in the test on PC-3 and in the test with SNB-75 was > 100 µM (inactive) in each case. Further, the GI50 in the test with MCF7, with SK-MEL-2, in the test with KM12, in the test on OVCAR-8, in the test on NCI-H226 and in the test on EKVX was > 100 µM (inactive) in each case. Moreover, the GI50 in the test on 786-0 was > 100 µM (inactive).

`NNC(=O)c1nn[nH]c1SSc1[nH]nnc1C(=O)NN`: the GI50 in the test on HT-29, with TK-10, with IGROV-1, with CAKI-1, with BT-549 and with UACC-257 was > 100 µM (inactive) each time. Also, the GI50 in the test on UACC-62, with M14, in the test with CCRF-CEM, in the test on NCI-H23, in the test on PC-3 and in the test on SNB-75 was > 100 µM (inactive) throughout. The GI50 with MCF7, in the test with SK-MEL-2, in the test on KM12, in the test on OVCAR-8, in the test with NCI-H226 and in the test with EKVX was > 100 µM (inactive) each time. Also, the GI50 in the test with 786-0 was > 100 µM (inactive).
